Experimental data: ChEMBL document CHEMBL1136451, “Semi-synthetic glycopeptide antibacterials” (Bioorg Med Chem Lett, 2003)
Converted amounts (≈) assume the structure as drawn.

Legend:
Staphylococcus aureus [1] = experiment: Antibacterial activity against Vancomycin resistant staphylococcus aureus (VRSA); assay type: functional
[2] = Cmax (Tissue distribution) of compound was determined at a dose of 5 mg/kg in human; assay type: ADME, organism-based; parameters: dose 5 mg/kg; details: in vivo
[3] = Half life of compound was determined in man with once daily dosing; assay type: ADME; details: human
Staphylococcus aureus [4] = experiment: Inhibitory activity of compound against Staphylococcus aureus ATCC 33591; assay type: functional, organism-based
Enterococcus faecalis = experiment: Inhibitory activity of compound against VanA Enterococcus faecalis MGH-01; assay type: functional, organism-based
Streptococcus agalactiae = experiment: Inhibitory activity of compound against Streptococcus agalactiae KPB-01; assay type: functional, organism-based
Streptococcus pneumoniae = experiment: Antibacterial activity against Streptococcus pneumoniae; assay type: functional
Enterococcus sp. = experiment: Antibacterial activity against Enterococcus species., VanA; assay type: functional
Staphylococcus aureus [5] = experiment: Antibacterial activity against Methicillin resistant staphylococcus aureus (MRSA); assay type: functional

Compound	MIC (Staphylococcus aureus [1])	MIC90 (Streptococcus pneumoniae)	MIC90 (Enterococcus sp.)	MIC90 (Staphylococcus aureus [5])	further results
CCCCCCCCCCNCCN[C@@]1(C)C[C@H](O[C@H]2[C@H](Oc3c4cc5cc3Oc3ccc(cc3Cl)[C@@H](O)[C@]3(C)NC(=O)[C@H](NC(=O)[C@@H]5NC(=O)[C@H](CC(N)=O)NC(=O)[C@](C)(NC(=O)[C@@H](CC(C)C)NC)[C@H](O)c5ccc(c(Cl)c5)O4)c4ccc(O)c(c4)-c4c(O)cc(O)cc4[C@@H](C(=O)O)NC3=O)O[C@H](CO)[C@@H](O)[C@@H]2O)O[C@@H](C)C1O (stereo not given in full)	0.4 µg/mL (≈ 0.241 µM)	–	–	–	–
CCCCCCCCCCNCCN[C@@]1(C)C[C@H](O[C@H]2[C@H](Oc3c4cc5cc3Oc3ccc(cc3Cl)[C@@H](O)[C@@H](NC(=O)[C@@H](CC(C)C)NC)C(=O)N[C@@H](CC(N)=O)C(=O)N[C@H]5C(=O)N[C@H]3C(=O)N[C@H](C(=O)N[C@H](C(=O)O)c5cc(O)c(CNCP(=O)(O)O)c(O)c5-c5cc3ccc5O)[C@H](O)c3ccc(c(Cl)c3)O4)O[C@H](CO)[C@@H](O)[C@@H]2O)O[C@@H](C)[C@H]1O	–	–	–	–	Cmax [2]: 45000 ng/mL; half-life [3]: 7 h
CCCCCCCCCCNCCN[C@@]1(C)C[C@H](O[C@H]2[C@H](Oc3c4cc5cc3Oc3ccc(cc3Cl)[C@@H](O)[C@@](C)(NC(=O)[C@@H](CC(C)C)NC)C(=O)N[C@@H](CC(N)=O)C(=O)N[C@H]5C(=O)N[C@H]3C(=O)N[C@H](C(=O)N[C@H](C(=O)O)c5cc(O)c(CNCP(=O)(O)O)c(O)c5-c5cc3ccc5O)[C@H](O)c3ccc(c(Cl)c3)O4)O[C@H](CO)[C@@H](O)[C@@H]2O)O[C@@H](C)C1O (stereo not given in full) [listing 1 of 2 here]	–	–	–	–	IC50 (Staphylococcus aureus [4]): 23 µg/mL (≈ 13 µM); IC50 (Enterococcus faecalis): 10 µg/mL (≈ 5.65 µM); IC50 (Streptococcus agalactiae): 15 µg/mL (≈ 8.48 µM)
CCCCCCCCCCNCCN[C@@]1(C)C[C@H](O[C@H]2[C@H](Oc3c4cc5cc3Oc3ccc(cc3Cl)[C@@H](O)[C@@](C)(NC(=O)[C@@H](CC(C)C)NC)C(=O)N[C@@H](CC(N)=O)C(=O)N[C@H]5C(=O)N[C@H]3C(=O)N[C@H](C(=O)N[C@H](C(=O)O)c5cc(O)c(CNCP(=O)(O)O)c(O)c5-c5cc3ccc5O)[C@H](O)c3ccc(c(Cl)c3)O4)O[C@H](CO)[C@@H](O)[C@@H]2O)O[C@@H](C)C1O (stereo not given in full) [listing 2 of 2 here]	2 µg/mL (≈ 1.13 µM)	0.008 µg/mL (≈ 0.00452 µM)	8 µg/mL (≈ 4.52 µM)	1 µg/mL (≈ 0.565 µM)	–
CN[C@H]1C(=O)N[C@@H]2Cc3ccc(cc3)Oc3cc4cc(c3O[C@@H]3O[C@H](C(=O)O)[C@@H](O)[C@H](O)[C@H]3NC(=O)CCCCCCCCC(C)C)Oc3ccc(cc3Cl)[C@@H](O)[C@@H]3NC(=O)[C@H](NC(=O)[C@@H]4NC(=O)[C@@H](NC2=O)c2cc(cc(O)c2Cl)Oc2cc1ccc2O)c1ccc(O)c(c1)-c1c(O[C@H]2O[C@H](CO)[C@@H](O)[C@H](O)[C@@H]2O)cc(O)cc1[C@@H](C(=O)NCCCN(C)C)NC3=O [DALBAVANCIN]	–	0.06 µg/mL (≈ 0.033 µM)	128 µg/mL (≈ 70.5 µM)	0.25 µg/mL (≈ 0.138 µM)	–
CN[C@H](CC(C)C)C(=O)N[C@H]1C(=O)N[C@@H](CC(N)=O)C(=O)N[C@H]2C(=O)N[C@H]3C(=O)N[C@H](C(=O)N[C@H](C(=O)O)c4cc(O)cc(O)c4-c4cc3ccc4O)[C@H](O[C@H]3C[C@](C)(N)[C@@H](O)[C@H](C)O3)c3ccc(c(Cl)c3)Oc3cc2cc(c3O[C@@H]2O[C@H](CO)[C@@H](O)[C@H](O)[C@H]2O[C@H]2C[C@](C)(NCc3ccc(-c4ccc(Cl)cc4)cc3)[C@@H](O)[C@H](C)O2)Oc2ccc(cc2Cl)[C@H]1O [ORITAVANCIN]	0.5 µg/mL (≈ 0.279 µM)	0.008 µg/mL (≈ 0.00446 µM)	4 µg/mL (≈ 2.23 µM)	1 µg/mL (≈ 0.558 µM)	–
CN[C@H](CC(C)C)C(=O)N[C@H]1C(=O)N[C@@H](CC(N)=O)C(=O)N[C@H]2C(=O)N[C@H]3C(=O)N[C@H](C(=O)N[C@H](C(=O)O)c4cc(O)cc(O)c4-c4cc3ccc4O)[C@H](O)c3ccc(c(Cl)c3)Oc3cc2cc(c3O[C@@H]2O[C@H](CO)[C@@H](O)[C@H](O)[C@H]2O[C@H]2C[C@](C)(N)[C@H](O)[C@H](C)O2)Oc2ccc(cc2Cl)[C@H]1O [VANCOMYCIN]	–	0.008 µg/mL (≈ 0.00552 µM)	4 µg/mL (≈ 2.76 µM)	1 µg/mL (≈ 0.69 µM)	–
